Measured values published in patent US20100035932A1, “NOVEL FORMYL PEPTIDE RECEPTOR LIKE 1 AGONISTS THAT INDUCE MACROPHAGE TUMOR NECROSIS FACTOR ALPHA AND COMPUTATIONAL STRUCTURE-ACTIVITY RELATIONSHIP ANALYSIS OF THEREOF” (priority 2008, published 2010).
Read-outs that look alike come from different tables or passages of the source.

Legend:
FPRL1 = target: T1, FPRL1 (Homo sapiens, UniProt P25090); experiment: Ca2+ mobilization in RBL-FPRL1 cells; format: cell-based
T1 construct: expressed in transfected cells; host or cells: rat basophilic leukemia RBL-2H3 cells (RBL-FPRL1)
T1 sequence (P25090 1-351): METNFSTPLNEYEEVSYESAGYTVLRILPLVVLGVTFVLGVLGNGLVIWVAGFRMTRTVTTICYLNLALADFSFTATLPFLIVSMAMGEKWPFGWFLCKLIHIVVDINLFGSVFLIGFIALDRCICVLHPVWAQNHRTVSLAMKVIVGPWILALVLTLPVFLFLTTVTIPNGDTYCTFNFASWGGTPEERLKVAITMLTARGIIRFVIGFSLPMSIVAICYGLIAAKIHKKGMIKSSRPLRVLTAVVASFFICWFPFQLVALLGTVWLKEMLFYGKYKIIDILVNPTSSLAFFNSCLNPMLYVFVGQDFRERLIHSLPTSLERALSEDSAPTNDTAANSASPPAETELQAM

[1] = tested on: human MonoMac6 macrophages; experiment: TNF-α production in MonoMac6 cells (ELISA); format: cell-based; settings: 24 hr, various concentrations
murine neutrophils = experiment: Chemotaxis assay, murine neutrophils; format: cell-based; settings: percent of response induced by 50 nM KC
J774.A1 macrophages [2] = experiment: IL-6 production in J774.A1 macrophages (ELISA); format: cell-based, murine; settings: J774.A1, 24 hr
Experimental: (§1) Cells were treated for 24 hr with DMSO control, test compound, or LPS and mouse TNF-α or IL-6 and human TNF-α enzyme-linked immunosorbent assay (ELISA) kits (BD Biosciences Pharmigen) were used to detect these cytokines in the cell supernatants. Cytokine concentration was determined by extrapolation from the TNF-α/IL-6 standard curve, according to the manufacturer's protocol.
(§2) For treatments, cells were plated in 96-well microtiter plates at 2×10^5 cells/well (J774.A1, MonoMac6) or 6×10^4 cells/well (human monocyte-derived macrophages) using their respective culture media, except FBS was reduced to 3% (v/v). After incubation overnight (5% CO2, 37° C.), the media were removed and replaced with fresh media containing test compounds.

J774.A1 macrophages [3] = experiment: ROS production in J774.A1 macrophages (L-012 luminescence); format: cell-based; settings: Mus musculus, concentration that enhanced ROS production by 50% above background, read-out: ROS Production AC50, Murine Mφ
Experimental: (§3) Murine macrophage J774.A1 cells were cultured in DMEM supplemented with 10% (v/v) heat-inactivated fetal bovine serum (FBS), 10 mM HEPES, 100 μg/ml streptomycin, and 100 U/ml penicillin. Cells were grown to confluence in sterile tissue culture flasks and gently detached by scraping. Human monocyte/macrophage MonoMac6 cells (DSMZ, Germany) were cultured in RPMI 1640 supplemented with 10% (v/v) FBS, 10 μg/ml bovine insulin, 100 μg/ml streptomycin, and 100 U/ml penicillin. Rat basophilic leukemia (RBL-2H3) cells transfected with human FPR (RBL-FPR) or FPRL1 (RBL-FPRL1) were cultured in DMEM supplemented with 20% (v/v) FBS, 10 mM HEPES, 100 μg/ml streptomycin, and 100 U/ml penicillin, as described previously (Nanamori et al., 2004). Human monocytic THP-1 cells were cultured in RPMI 1640 medium supplemented with 10% (v/v) FBS, 100 μg/ml streptomycin, and 100 U/ml penicillin. All cell cultures were grown at 37° C. in a humidified atmosphere containing 5% CO2. Cell number and viability were assessed microscopically using trypan blue exclusion.
J774.A1 macrophages were plated at density of 1.5×10^5 cells/well in wells of 96-well flat-bottom white microtiter plates (Corning Incorporated, Costar). […] After 5 min, the media was replaced by HBSS+ containing 4 μM L-012 and 8 μg/ml HRP, and luminescence was monitored for 120 min (2-min intervals) at 37° C. using a Fluoroscan Ascent FL microtiter plate reader (Thermo Electron, Waltham, Mass.). The curve of light intensity (in relative luminescence units) was plotted against time, and the area under the curve was calculated as total luminescence. The percent activation of ROS was calculated as follows: % activation=(sample-DMSO control)/DMSO control×100. The minimal compound concentration that enhanced ROS production by 50% above background control cells (AC50) was determined by graphing the % activation of ROS vs. log [test compound]. Each curve was determined using five to seven compound concentrations. […] The results were analysed as described above to determine % activation and AC50 values.

human neutrophils [4] = experiment: Chemotaxis assay, human neutrophils; format: cell-based; settings: percent of response induced by 50 nM IL-8
J774.A1 cells = experiment: Cytotoxicity assay (CellTiter-Glo); format: cell-based, murine; settings: J774.A1, 24 hr
Experimental: Cytotoxicity was analyzed with a CellTiter-Glo Luminescent Cell Viability Assay Kit (Promega, Inc., Madison, Wis.), according to the manufacturer's protocol. Briefly, J774.A1 cells were cultured at a density of 3×10^4 cells/well with the test compounds for 24 hr at 37° C. and 5% CO2, substrate was added, and luminescence signal in the samples was analyzed with a Fluoroscan Ascent FL.

J774.A1 macrophages [5] = experiment: TNF-α production in J774.A1 macrophages (ELISA); format: cell-based, murine; settings: for fold induction at 50 µM: Mus musculus, J774.A1, 24 h; for Determined class of macrophage TNF-α inducing activity: experimentally determined class
[6] = tested on: human monocytic cells THP-1; experiment: TNF-α production in THP-1 cells (ELISA); format: cell-based; settings: 24 hr, various concentrations
Experimental: as §3, with “All cell cultures were grown at 37° C. in a humidified atmosphere containing 5% CO2.” left out
as §1

[7] = tested on: murine peritoneal macrophages; experiment: TNF-α production in murine peritoneal macrophages (ELISA); format: cell-based; settings: 24 hr, various concentrations
Experimental: Bone marrow leukocytes were flushed from tibias and femurs of BALB/c mice with HBSS− supplemented with 0.1% BSA and 1% glucose and the neutrophils were purified on Percoll density gradients, as previously described (Schepetkin et al., 2007). Peritoneal macrophages were isolated from BALB/c mice 4 days after intraperitoneal injection of 1 ml saline containing 100 μg concanavalin A, as described previously (Schepetkin et al., 2005). Peritoneal exudate cells were suspended in RPMI 1640 containing 10% (v/v) FBS with antibiotics (penicillin and streptomycin) and incubated at 37° C. in 100 mm tissue culture dishes for 1 h. Adherent peritoneal macrophages were harvested and cultured with the compounds under investigation for 24 hr at 37° C. and 5% CO2.
as §1

human neutrophils [8] = experiment: ROS production in human neutrophils (L-012 luminescence); format: cell-based; settings: Neutrophil, concentration that enhanced ROS production by 50% above background, read-out: ROS Production AC50, Human PMN
Experimental: J774.A1 macrophages were plated at density of 1.5×10^5 cells/well in wells of 96-well flat-bottom white microtiter plates (Corning Incorporated, Costar). After 16 hr (5% CO2, 37° C.), the media was aspirated, and test compounds or vehicle (final DMSO concentration of 1%) were added in fresh media (DMEM without phenol red, supplemented with 3% (v/v) FBS). After 5 min, the media was replaced by HBSS+ containing 4 μM L-012 and 8 μg/ml HRP, and luminescence was monitored for 120 min (2-min intervals) at 37° C. using a Fluoroscan Ascent FL microtiter plate reader (Thermo Electron, Waltham, Mass.). The curve of light intensity (in relative luminescence units) was plotted against time, and the area under the curve was calculated as total luminescence. The percent activation of ROS was calculated as follows: % activation=(sample-DMSO control)/DMSO control×100. The minimal compound concentration that enhanced ROS production by 50% above background control cells (AC50) was determined by graphing the % activation of ROS vs. log [test compound]. Each curve was determined using five to seven compound concentrations. Human neutrophils were plated at density of 5×10^5 cells/well in wells of 96-well flatbottom white microtiter plates, and compounds under investigation or vehicle (final DMSO concentration of 1%) were added. After 5 min, the media was replaced by HBSS+ containing […] L-012, and luminescence was monitored for 120 min (2-min intervals) at 37° C. using a Fluoroscan Ascent FL microtiter plate reader. The results were analysed as described above to determine % activation and AC50 values.

human neutrophils [9] = experiment: Ca2+ mobilization in human neutrophils (FLIPR Calcium 3); settings: Neutrophil
[10] = tested on: human monocyte-derived macrophages; experiment: TNF-α production in human monocyte-derived macrophages (ELISA); format: cell-based; settings: 24 hr, various concentrations
Experimental: as §1, §2

J774.A1 macrophages [11] = experiment: cells; settings: Mus musculus, J774.A1, read-out: Ca2+ Mobilization EC50, Murine Mφ
[12] = relative fold of activation compared to vehicle (DMSO) control for 50 μM compound, N.A. = no activity was observed, read-out: TNF-α production

| SMILES | EC50 (human neutrophils [9]; read-out: [Ca2+]i EC50) [µM] | fold induction at 50 µM (J774.A1 macrophages [5]; [12]) | also measured |
| --- | --- | --- | --- |
| O=C(N/N=C/c1ccc(-c2cccc(Br)c2)o1)c1cccnc1 [Compound 1] | 0.3 | 40 to 50 | EC50 (FPRL1): 19.1 µM; TNF-α production in MonoMac6 cells [1]: induced TNF-α production in a concentration-dependent manner; Chemotaxis (%), Murine PMN (murine neutrophils): 68.9 ± 7.8%; IL-6 production (J774.A1 macrophages [2]): induced secretion of IL-6; AC50 (J774.A1 macrophages [3]): 25.4 ± 4 µM; Chemotaxis (%), Human PMN (human neutrophils [4]): 67.8 ± 9.4%; Effect on cell viability (J774.A1 cells): had no effect on cell viability; fold induction at 50 µM (J774.A1 macrophages [5]; 50 μM compound, above response to vehicle (DMSO) control, Table 5 numbering, N.A. = inactive, read-out: FI (fold-increase of macrophage TNF-α production)): 50; Determined class of macrophage TNF-α inducing activity (J774.A1 macrophages [5]): Active; Effect of Boc-2 (FPR/FPRL1 antagonist) on compound-induced TNF-α production (J774.A1 macrophages [5]; pretreated 5 min with Boc 2 (40 μM), then 50 μM compound 24 hr): inhibited; Effect of WRW4 (FPRL1 antagonist) on compound-induced TNF-α production (J774.A1 macrophages [5]; pretreated 5 min with WRW4 (10 μM), then 50 μM compound 24 hr): inhibited; Effect of PTX on induced TNF-α production (J774.A1 macrophages [5]; pretreated 30 min with PTX (0.4 and 1 μg/ml), then Compound 50 μM or LPS 50 ng/ml for 12 hr): significantly inhibited; Effect of ActD or CHX on compound-induced TNF-α production (J774.A1 macrophages [5]; pretreated with ActD 1 μg/ml or CHX 5 μg/ml 30 min, then 50 μM compound 12 hr): completely inhibited; TNF-α production in THP-1 cells [6]: induced TNF-α production in a concentration-dependent manner; TNF-α production in murine peritoneal macrophages [7]: induced TNF-α production in a concentration-dependent manner; AC50 (human neutrophils [8]): 0.2 ± 0.02 µM; EC50 (human neutrophils [9]; read-out: Ca2+ Mobilization EC50, Human PMN): 0.3 ± 0.2 µM; TNF-α production in human monocyte-derived macrophages [10]: induced TNF-α production in a concentration-dependent manner; EC50 (J774.A1 macrophages [11]): 24.1 ± 4.1 µM |
| Cc1ccc(C(=O)N/N=C/c2ccc(-c3cc(Cl)c(Cl)cc3Cl)o2)cn1 [Compound 10] | 32 | < 5 |  |
| O=C(N/N=C/c1cc(Br)cc(Br)c1OC(=O)c1cccc(F)c1)c1ccc2c(c1)OCO2 [Compound 20] | 18.9 | < 2 |  |
| CCOc1cc(/C=N/NC(=O)c2ccc3c(c2)OCCO3)cc(Br)c1O [Compound 21] | 21.9 | < 2 |  |
| O=C(N/N=C/c1ccco1)c1ccc(Br)cc1O [Compound 35] | 22.7 |  |  |
| Cc1ccc(C(=O)N/N=C/c2ccc(C)o2)cc1 [Compound 36] | 25.5 |  |  |
| O=C(N/N=C/c1c(O)ccc2ccccc12)c1ccc2c(c1)OCO2 [Compound 37] | 26.8 |  |  |
| COc1ccc(/C=N/NC(=O)c2ccc3c(c2)OCO3)c(OC)c1 [Compound 38] | 28.1 |  |  |
| O=C(N/N=C/c1ccco1)c1ccccc1 [Compound 39] | 28.4 |  | Determined class of macrophage TNF-α inducing activity (J774.A1 macrophages [5]): NA (inactive derivatives were placed in the nonactive group labeled “NA”) |
| C[C@H](CCC(=O)O)C[C@H](C)C[C@H](C)C(=O)/C=C(\O)[C@H](C)C[C@H](C)C/C=C/[C@@H](C)[C@@H](O)[C@@H](C)[C@@H](O)C[C@@H]1CC[C@@](C)([C@H]2CC[C@@](C)([C@@H](C)O)O2)O1 [ionomycin, reference compound] |  |  | EC50 (J774.A1 macrophages [11]): 0.58 ± 0.3 µM |

Continued by falling EC50 (human neutrophils [9]; read-out: [Ca2+]i EC50), values first:

| EC50 (human neutrophils [9]; read-out: [Ca2+]i EC50) [µM] | SMILES | fold induction at 50 µM (J774.A1 macrophages [5]; [12]) | also measured |
| --- | --- | --- | --- |
| 15.8 | Cc1ccc(C(=O)N/N=C/c2ccc(-c3cccc(C(F)(F)F)c3)o2)cn1 [Compound 9] | < 5 | TNF-α production, primary screening of agonists AG 1-26 (J774.A1 macrophages [5]; murine J774.A1 macrophages): induced modest levels of TNF-α production |
| 14.5 | CN(C)c1ccc(/C=N\NC(=O)c2ccccc2)cc1 [Compound 19] | < 2 |  |
| 12.2 | CCOc1cc(/C=N\NC(=O)c2ccc3c(c2)OCO3)cc(Br)c1O [Compound 18] | < 2 |  |
| 11.9 | O=C(N/N=C/c1ccc(-c2ccc(Cl)c(Cl)c2)o1)c1ccc2c(c1)OCO2 [Compound 8] | < 5 |  |
| 10 | O=C(N/N=C/c1ccc(-c2cc(Cl)ccc2Cl)o1)c1ccc([N+](=O)[O-])cc1 [Compound 7] | < 5 |  |
| 9 | CN(C)c1ccc(/C=N\NC(=O)c2ccc([N+](=O)[O-])cc2)cc1 [Compound 4] | 20 to 25 |  |
| 8.9 | O=C(N/N=C1\C(=O)N(CCc2ccccc2)c2ccccc21)c1ccc2c(c1)OCO2 [Compound 17] | < 2 |  |
| 2.3 | O=C(N/N=C/c1ccc(-c2cccc(Cl)c2Cl)o1)c1ccccc1 [Compound 5] | 7 to 10 |  |
| 0.3 | O=C(N/N=C/c1ccc(-c2ccc([N+](=O)[O-])cc2Cl)o1)c1ccc2c(c1)OCO2 [Compound 3] | 30 to 40 |  |
